Reference: patent publication US20180236105A1, “METHODS FOR TREATING NEURODEGENERATIVE DISEASES USING GENE THERAPY TO DELAY DISEASE ONSET AND PROGRESSION WHILE PROVIDING COGNITIVE PROTECTION” (UNIVERSITY OF IOWA RESEARCH FOUNDATION, priority 2015, published 2018)

What was measured:
[1] = test system: CLN2−/− dogs; assay: Cerebrospinal fluid TPP1 enzyme activity assay; format: in vivo, dog; conditions: for CSF TPP1 activity after introduction of MMF: with cyclosporine and rAAV.caTPP1
Text: Long-haired miniature Dachshunds were bred and housed at the University of Missouri in facilities overseen by the Office of Animal Resources (OAR). TPP1-null animals were generated from heterozygous breeding (Awano, 2006). All puppies were genotyped by PCR. In addition to the standard care provided by the OAR, the dogs were socialized on a daily basis throughout the study. All procedures involving dogs were reviewed and approved by the University of Missouri Animal Care and Use Committee and conformed to the National Institutes of Health Guide for the Care and Use of Laboratory Animals. Intraventricular infusions were performed over 25 minutes using the Brainsight™ neuronavigation system equipped with a 26 gauge 12 cm needle. Cyclosporine 10 mg/kg twice daily by mouth was administered to all of the dogs in this study starting one to two weeks prior to the gene therapy vector administration. The dose was gradually tapered after 2 months to once daily, which was continued for the duration of the study. A 10-20 mg/kg daily dose by mouth of mycophenolate mofetil (MMF) was instituted, as indicated in the results, and tapered after 2 to several months depending on tolerability.
TPP1 activity was assayed via a modification of previously described methods (Chang et al., 2008; Tian et al., 2006). Samples were homogenized in 300 μl ice-cold homogenization buffer (0.1% Triton X-100 in normal saline with complete protease inhibitor cocktail, Roche, Mannheim, Germany). Insoluble material was removed by centrifugation at 21×10^3 rcf at 4° C.×15 minutes, and protein quantified by DC Protein Assay (Biorad, Hercules, Calif.). […] Plates were read in a Safire 2 microplate reader (Tecan., Mannedorf, Switzerland) at 37° C. using the 460-nm emission filter. […]
Samples were concentrated 3.5-fold using Amicon Ultra-0.5 Centrifugal filter (Ultracel-10K. Millipore Corporation) at 21×10^3 rcf for 5 minutes at 4° C. Activated TPP1 was quantified as in tissue samples.

[2] = test system: Cln2−/− mouse embryo fibroblast cells; assay: caTPP1 neutralization antibody assay (NAbs in dog CSF/serum); format: cell-based
Description: To assess neutralizing Abs (Nabs) in CSF, Cln2−/− mouse embryo fibroblast cells were used. Sixteen hours before the assay, 1.0×10^5 cells/well were plated onto 24 wells plate the day before, and dog CSF was heat inactivated at 56° C. for 30 minutes, diluted 1:10, and then pre-incubated with 1.75 nM of TPP1 at 37° C. for one hour. The mixture was applied to cells for three hours at 37° C. after which the cells were washed with 37° C. HBSS (Ca^2+ and Mg^2+) and then homogenized in 100 μl of ice cold homogenization buffer-0.1% TritonX-100 in normal saline with complete protease inhibitor cocktail (Roche, Mannheim, Germany). Insoluble material was removed by centrifugation at 21×10^3 rcf at 4° C. for 10 minutes and TPP1 activity detected as described above. The results were calculated as percentage of activity obtained from CSF collected prior to vector administration.

[3] = test system: dog disease model; conditions: cited from earlier work
[4] = MMF 5 days prior to rAAV.caTPP1 delivery, DC018

CSF TPP1 activity [1, 4]	CSF TPP1 activity after introduction of MMF ([1]; MMF by 33 days post-vector, DC015, DC016)	anti-TPP1 antibodies [2, 4]	anti-TPP1 Ab titers ([2]; MMF by 33 days post-vector, with cyclosporine and rAAV.caTPP1)	Molecule	CSF TPP1 activity after introduction of MMF ([1]; MMF from 44 days post-vector, DC013, DC014)	anti-TPP1 immune responses ([2]; MMF at the time of or before AAV delivery)	anaphylactic reactions ([3]; bolus infusion)	immune responses to recombinant protein ([3]; infused into the lumbar subarachnoid space or lateral ventricle)
robust and sustained	increase in CSF TPP1 activity	did not appear	reduction in anti-TPP1 Ab titers	COc1c(C)c2c(c(O)c1C/C=C(\C)CCC(=O)OCCN1CCOCC1)C(=O)OC2 [MMF, mycophenolate mofetil]	did not result in a recovery of TPP1 activity	reduced, inhibited or dramatically delayed		
				recombinant human TPP1: recombinant human TPP1 infused into the lumbar subarachnoid space or lateral ventricle (Vuillemenot et al., 2015) (protein, UniProt O14773 196-563, looked up) Tripeptidyl-peptidase 1: LHLGVTPSVIRKRYNLTSQDVGSGTSNNSQACAQFLEQYFHDSDLAQFMRLFGGNFAHQASVARVVGQQGRGRAGIEASLDVQYLMSAGANISTWVYSSPGRHEGQEPFLQWLMLLSNESALPHVHTVSYGDDEDSLSSAYIQRVNTELMKAAARGLTLLFASGDSGAGCWSVSGRHQFRPTFPASSPYVTTVGGTSFQEPFLITNEIVDYISGGGFSNVFPRPSYQEEAVTKFLSSSPHLPPSSYFNASGRAYPDVAALSDGYWVVSNRVPIPWVSGTSASTPVFGGILSLINEHRILSGRPPLGFLNPRLYQQHGAGLFDVTRGCHESCLDEEVEGQGFCSGPGWDPVTGWGTPNFPALLKTLLNP			Anaphylactic reactions were noted	robust anti-TPP1 responses
